Measurements: US20230072528A1, “METHODS FOR DISCONTINUING A TREATMENT WITH A TYROSINE KINASE INHIBITOR (TKI)” (INSERM (Institut National de la Santé et de la Recherche …, priority 2020, published 2023)

System: innate CD8(+) T-cells
Test: Ex vivo flow cytometry of peripheral blood CD8(+) T-cell subsets in CML patients under therapy (DASA-PEGIFN phase II trial)
Design: species or system human
Conditions: for innate CD8(+) T-cell frequency (mean±SD): 3 months after initiation of therapy
Procedure: The phase II DASA-PEGIFN clinical trial was registered with EudraCT number 2012-003389-42. Briefly, newly diagnosed Ph^+ CP-CML patients were treated first-line with dasatinib at 100 mg/day. At 3 months, they were assigned to receive Peg-IFNα2b associated to dasatinib when platelets>100×109/L, neutrophils>1.5×10^9/L and lymphocytes<4.0×109/L counts were achieved. Venous blood was collected on heparin at several time points: diagnosis, 3, 6, 12 and 24 months after initiation of treatment Among the 61 patients receiving Dasatinib+Peg-IFNα2b therapy, we analysed samples from 40 patients. Two out of them were excluded for technical issues. See Table 1 for detailed patient's characteristics. Patients response to treatment were classified conforming to 2013 ELN criteria. Major molecular response was defined as a ratio of BCR-ABL1/ABL1≤0.1% on the international scale (IS). A ratio of BCR-ABL1/ABL1IS≤0.01% defined a molecular response of 4-log reduction or in our work a deep molecular response (DMR). All patients gave informed consent in accordance with the Declaration of Helsinki for participation in the study, which was approved by the scientific committee of the INSERM CIC-1402 (Poitiers, France) and Comité Protection Personnes Recherche Biomédicale Région Poitou Charentes (protocol number 12.10.31).
Peripheral blood mononuclear cells (PBMC) were isolated from blood samples by density gradient centrifugation (Histopaque®-1077, Sigma-Aldrich, St Louis, Mo., US), resuspended in 90% Fetal Bovine Serum (10270106, Gibco®, Thermo Fisher Scientific, Waltham, Mass., US) with 10% DMSO (D2650, Sigma-Aldrich), and cryopreserved at −80° C. or in liquid nitrogen until use.
Phenotypic analysis of cells from HD and CML patients was performed by ex vivo flow cytometry. All monoclonal antibodies (mAbs) used in this study are listed in Supplementary Table 2. The expression of the different markers was assessed by staining PBMC with appropriate combinations of mAbs. panKIR/NKG2A referred to staining with the mix of the three following antibodies from Miltenyi Biotec (Bergisch Gladbach, Germany) KIR2D, KIR3DL1/KIR3DL2 (CD158e/k) and NKG2A (CD159a). Dead cells were excluded using the Live/Dead® Fixable NearIR Dead Cell Stain kit (L10119, Invitrogen™, Thermo Fisher Scientific). For intranuclear Eomes staining, cells were permeabilized with anti-human Foxp3 staining kit according to the manufacturer's protocol (73-5776-40, eBioscience™, Thermo Fisher Scientific). Flow data were acquired on a FACSVerse flow cytometer (Becton, Dickinson & Compagny, Franklin Lakes, N.J., US) with FACSuite™ software (Becton, Dickinson & Compagny) and analyzed using FlowJo™ v10 (Becton, Dickinson & Compagny). Results are expressed as either percent positive cells or as mean fluorescence intensity (MFI).
Results are shown as box and whiskers with 5 percentile, median and 95 percentile unless indicated otherwise. All statistical data analyses were performed using GraphPad Prism v7.0 (GraphPad software, Inc). Wilcoxon and Mann-Whitney two-tailed test were used for paired and unpaired data analysis, respectively. A p value<0.05 was considered significant. Cumulative response rates were calculated using the cumulative incidence approach and Mantle-Cox method. The cut-off point for innate CD8(+) T-cells was optimized by receiver operating characteristics (ROC) curves and the Youden index using the logarithm of innate CD8(+) T-cell frequency at diagnosis and after 3 months of therapy. Patients were dichotomized according to their low or high percentage of innate CD8(+) T-cells. Data are presented as Kaplan-Meier curves.

[1] = after 3 months of therapy as compared to diagnosis

For `Cc1nc(Nc2ncc(C(=O)Nc3c(C)cccc3Cl)s2)cc(N2CCN(CCO)CC2)n1` [dasatinib, N-(2-chloro-6-methylphenyl)-2-[[6-[4-(2-hydroxyethyl)-1-piperazinyl]-2-methyl-4-pyrimidinyl]amino]-5-thiazole-carboxamide monohydrate], the “innate CD8(+) T-cell frequency (mean±SD)” value (M12-DMR group (DMR achieved at 12 months)) was 9.14±6.54%, the “innate CD8(+) T-cell frequency (mean±SD)” value (M12-noDMR group (no DMR at 12 months)) was 3.48±2.43% and the “frequency of innate CD8(+) T-cells (mean±SD)” value (CML patients, whole group, after 3 months of therapy, among total CD8+TCR-αβ+ cells, 3.78±3.39% at diagnosis) was 5.98±5.43%. For the same compound, the “Eomes and CD49d expression levels of innate CD8(+) T-cells” value [1] was “significant increase”, the “conventional-memory CD8(+) T-cell frequency” value [1] was “concomitantly increased” and the “naive CD8(+) T-cell frequency” value [1] was “decreased”.
